The record followed here is publication PMC12084609, “Structural insights into small-molecule agonist recognition and activation of complement receptor C3aR” (The EMBO Journal, 2025).

Where a chain is given by its changes, count along the chain named. “And” between values parts separate entries of the source, which are not always exact repeats. Equal entries are not always repeated. Where two headings read alike, the source gives them in different places. Some results are limits rather than exact numbers.

Format in all cases: cell-based
Test [1] addresses T1, C3aR H81^2.63A (Homo sapiens, UniProt Q16581, H81A).
T1 construct: expressed in transfected cells; host or cells: HEK293T
T1 sequence (Q16581 1-482 H81A): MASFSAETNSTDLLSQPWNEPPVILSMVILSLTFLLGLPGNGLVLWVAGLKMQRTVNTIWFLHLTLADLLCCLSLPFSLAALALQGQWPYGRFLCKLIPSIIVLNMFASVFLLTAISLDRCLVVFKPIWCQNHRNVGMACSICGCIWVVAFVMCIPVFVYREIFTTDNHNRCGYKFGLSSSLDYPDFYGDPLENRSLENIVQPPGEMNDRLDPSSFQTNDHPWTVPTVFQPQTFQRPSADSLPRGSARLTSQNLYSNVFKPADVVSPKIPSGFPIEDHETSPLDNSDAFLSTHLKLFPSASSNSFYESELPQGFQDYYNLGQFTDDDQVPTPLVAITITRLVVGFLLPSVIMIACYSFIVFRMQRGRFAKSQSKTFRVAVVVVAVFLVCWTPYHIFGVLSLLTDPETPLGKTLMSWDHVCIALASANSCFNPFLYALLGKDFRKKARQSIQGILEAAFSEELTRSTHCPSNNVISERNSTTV
In words: GloSensor-based cAMP assay, C3aR mutant H81A. Here is the method:
(§1) HEK293T cells were seeded on 6-well plates (NEST) and transfected with pGlosensor™-22F plasmids (Promega) and pcDNA3.1 plasmids encoding C3aR or its mutants an with N-terminal FLAG tag. After 48 h, cells were detached with Accutase solution (Sigma-Aldrich) and washed with PBS, and resuspended in assay buffer (CO2-independent medium with 0.5 mg mL^−1D-luciferin). 100,000–200,000 cells were seeded on 96-well white bottom plates (SPL) and incubated at 37 °C for 45 min followed by 45 min incubation at room temperature. After 90 min of incubation, basal luminescence signals were recorded. In total, 25 μl of test ligand with various concentrations and 1 μM Forskolin (Sigma-Aldrich) were treated to the cells and luminescence signals were measured by Tristar 2 LB 942 multimode reader (Berthold). […] Relative luminescence unit (%) was calculated with the signal of wells treated with vehicle as 0% and the signal of wells treated with 1 μM Forskolin as 100% (DiRaddo et al, [2014]). Nonlinear regression was performed using a three-parameter logistic equation.
In general terms: Changes in cAMP serve as a functional read-out for many G protein-coupled receptors.

For test [2], the target named is T2, C3aR Y174^ECL2A (Homo sapiens, UniProt Q16581, Y174A).
T2 construct: expressed in transfected cells; host or cells: HEK293T
T2 sequence (Q16581 1-482 Y174A): T1 sequence (Q16581 1-482 H81A) with A81H, Y174A
In words: GloSensor-based cAMP assay, C3aR mutant Y174A. How it is done:
as §1

For test [3], the target named is T3, C3aR M106^3.36A (Homo sapiens, UniProt Q16581, M106A).
T3 construct: expressed in transfected cells; host or cells: HEK293T
T3 sequence (Q16581 1-482 M106A): T1 sequence (Q16581 1-482 H81A) with A81H, M106A
Put plainly: GloSensor-based cAMP assay, C3aR mutant M106A. How it is done:
as §1

The mark [4] stands for this setting: Dunnett's multiple comparisons test, WT minus mutant.

Consider `Cc1cc(C(c2ccc(Cl)cc2)c2ccc(Cl)cc2)sc1C(=O)N[C@@H](CCCNC(=N)N)C(=O)O` [JR14a, reference compound], for which, in test [1] (setting [4]), the “Mean Diff. of pIC50, WT vs. H81A” value is listed as 0.544. The remaining activity at 0.001 µM in test [1] (H81A, Log[JR14a (M)] -9, single replicates, read-out: cAMP response (% Forskolin)) was 94.5%. For the same compound, the remaining activity at 0.0001 µM in test [1] (H81A, Log[JR14a (M)] -10, single replicates, read-out: cAMP response (% Forskolin)) turned out to be 95.5%; in test [2] (Y174A, Log[JR14a (M)] -10, single replicates, read-out: cAMP response (% Forskolin)), 95.8%. Further, the remaining activity at 10 pM in test [1] (H81A, Log[JR14a (M)] -11, single replicates, read-out: cAMP response (% Forskolin)) turned out to be 93.3%; in test [2] (Y174A, Log[JR14a (M)] -11, single replicates, read-out: cAMP response (% Forskolin)) it was 106%. The “ΔpIC50 ± SE of Diff.” value in test [1] (H81^2.63A relative to WT C3aR) is reported as -0.54 ± 0.05; in test [2] (Y174^ECL2A relative to WT C3aR), 0.22 ± 0.09; in test [3] (M106^3.36A relative to WT C3aR) it was 0.21 ± 0.09. Also, the IC50 was 6.31 nM in test [1] (H81^2.63A, individual replicates, read-out: pIC50 (Replicate) (converted)); 12.4 nM in test [1] (IC50, H81^2.63A, dose-response plot); 12 nM and 16.2 nM and 18.2 nM in test [1] (pIC50 (Replicate), H81^2.63A, individual replicates); 1.61 nM in test [2] (IC50, Y174^ECL2A, dose-response plot); 3.63 nM and 1.55 nM and 0.871 nM in test [2] (pIC50 (Replicate), Y174^ECL2A, individual replicates); 1.7 nM in test [2] (pIC50 ± SEM (Mean), Y174^ECL2A, mean of independent experiments). Besides, the IC50 is 3.24 nM in test [3] (IC50, M106^3.36A, dose-response plot); 3.63 nM and 7.41 nM and 1.29 nM in test [3] (pIC50 (Replicate), M106^3.36A, individual replicates). Further, the “Mean Diff. of pIC50, WT vs. Y174A” value in test [2] (setting [4]) is on record as -0.215. Moreover, the remaining activity at 1 µM in test [2] (Y174A, Log[JR14a (M)] -6, single replicates, read-out: cAMP response (% Forskolin)) is 10.9%. Besides, the remaining activity at 0.1 µM in test [2] (Y174A, Log[JR14a (M)] -7, single replicates, read-out: cAMP response (% Forskolin)) amounted to 11.8%. In addition, the remaining activity at 0.01 µM in test [2] (Y174A, Log[JR14a (M)] -8, single replicates, read-out: cAMP response (% Forskolin)) was determined as 40.7%. In test [2] (Y174^ECL2 to Ala, relatively mild effect on downstream signaling), the “decrease in IC50 values vs WT” value is listed as under 10 fold. Moreover, the “Mean Diff. of pIC50, WT vs. M106A” value in test [3] (setting [4]) is given as -0.207.
